Laboratory results: patent US20250179047A1, “5-[7-(3,4-DIHYDRO-1H-ISOQUINOLINE-2-CARBONYL)-1,2,3,4 TETRAHYDROISOQUINOLIN-6-YL]-1H-PYRROLE-3-CARBOXAMIDE DERIVATIVES, PHARMACEUTICAL COMPOSITIONS CONTAINING THEM AND THEIR USES AS PRO-APOPTOTIC AGENTS” (LES LABORATOIRES SERVIER, priority 2022, published 2025)
Each block holds one compound with its values, some of them ahead of it.

How the values were obtained:
[1] = target: BCL2 WT (Homo sapiens (Human), UniProt P10415); assay: TR-FRET competitive binding assay, BCL2 WT; conditions: Ki determined from IC50, read-out: TR_FRET EKI_Bcl2 WT
Procedure, shortened: (§1)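 Competitive TR-FRET displacement of fluorescein-PUMA peptide (2 or 20 nM) from 0.5 nM terbium-labelled N-terminal Halo-fusion BCL2 (1-207, wild type or mutant) or BCLXL (2-196), expressed in E. coli. Buffer 50 mM Hepes pH 7.5, 150 mM NaCl, 5% DMSO; 2 h at 23°C. 520/495 nm ratio fitted over 11 points for IC50, converted to Ki.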

[2] = target: BCL2 D103Y (Homo sapiens, UniProt P10415, D103Y); assay: TR-FRET competitive binding assay, BCL2 D103Y; conditions: Ki determined from IC50, read-out: TR_FRET EKI_Bcl2 D103Y
Procedure, shortened: as §1

[3] = tested on: KMS-12-PE Bcl-2 WT; assay: In vitro cytotoxicity CellTiter-Glo 48 h, KMS-12-PE Bcl-2 WT; assay type: cell-based; conditions: Homo sapiens, KMS-12-PE, C50 = concentration needed to reach 50% of the cellular viability
Procedure, shortened: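 KMS-12-PE myeloma cells lentivirally transduced with Bcl-2 WT or G101V (TagRFP-sorted), exposed to compound 11-point dose-response for 48 h at 37 °C, 5% CO2. Viability read by CellTiter-Glo ATP luminescence; C50 is the concentration giving 50% cellular viability.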

[4] = target: BCLXL WT (Homo sapiens (Human), UniProt Q07817); assay: TR-FRET competitive binding assay, BCLXL WT; conditions: for Ki: BCLXL WT, Ki determined from IC50, read-out: TR_FRET EKI BclxL; for TR_FRET EKI BCLxL/WT selectivty ratio: ratio Ki BCLxL / Ki BCL2 WT
Chain of BCLXL WT (Q07817 other isoform, or with tags, fused parts or gaps): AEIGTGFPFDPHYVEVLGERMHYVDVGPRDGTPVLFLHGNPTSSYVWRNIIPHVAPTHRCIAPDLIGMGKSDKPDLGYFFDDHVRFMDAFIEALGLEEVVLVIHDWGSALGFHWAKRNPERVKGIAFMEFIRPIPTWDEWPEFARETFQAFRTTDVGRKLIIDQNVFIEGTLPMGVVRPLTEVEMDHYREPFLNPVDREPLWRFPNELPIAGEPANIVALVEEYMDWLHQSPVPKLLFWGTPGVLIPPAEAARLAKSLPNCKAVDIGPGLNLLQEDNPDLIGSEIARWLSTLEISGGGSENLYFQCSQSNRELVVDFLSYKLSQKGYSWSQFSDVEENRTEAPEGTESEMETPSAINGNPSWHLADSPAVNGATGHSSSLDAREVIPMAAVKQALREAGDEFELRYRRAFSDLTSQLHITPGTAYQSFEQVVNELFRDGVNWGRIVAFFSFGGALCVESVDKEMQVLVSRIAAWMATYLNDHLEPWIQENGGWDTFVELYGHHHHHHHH
Procedure, shortened: as §1

[5] = tested on: BCL2 G101V; assay: TR-FRET competitive binding assay, BCL2 G101V; parameters: species or system human; conditions: ratio Ki BCL2 G101V / Ki BCL2 WT
Procedure, shortened: as §1

[6] = target: BCL2 G101V (Homo sapiens, UniProt P10415, G101V); assay: TR-FRET competitive binding assay, BCL2 G101V; conditions: BCL2 G101V; Ki determined from IC50; read-out: TR_FRET EKI_Bcl2 G101V
Procedure, shortened: as §1

- Ki [1]: 0.014 nM
- Ki [2]: 0.05 nM
- Ki [4]: 5 nM
- TR_FRET EKI BCLxL/WT selectivty ratio [4]: 359.1
- TR_FRET EKI G101V/WT selectivty ratio [5]: 63.6
- Ki [6]: 0.9 nM
SMILES: Cc1c(C(=O)N(c2ccccc2)c2cnc3c(cnn3C)c2)cc(-c2cc3c(cc2C(=O)N2Cc4ccccc4C[C@H]2C)CN(C(=O)Cc2ccc(OCCN4CCOCC4)cc2)CC3)n1C [Example 195, 1,2-dimethyl-5-[7-[(3R)-3-methyl-3,4-dihydro-1H-isoquinoline-2-carbonyl]-2-[2-[4-(2-morpholinoethoxy)phenyl]acetyl]-3,4-dihydro-1H-isoquinolin-6-yl]-N-(1-methylpyrazolo[3,4-b]pyridin-5-yl)-N-phenyl-pyrrole-3-carboxamide]
- IC50 [3]: 0.0041 µM

- Ki [1]: 0.03 nM
- Ki [2]: 0.09 nM
- Ki [4]: 9.6 nM
- TR_FRET EKI BCLxL/WT selectivty ratio [4]: 301.1
- TR_FRET EKI G101V/WT selectivty ratio [5]: 83.2
- Ki [6]: 2.7 nM
SMILES: COCCn1cc(N(C(=O)c2cc(-c3cc4c(cc3C(=O)N3Cc5ccccc5C[C@H]3C)CN(C(=O)Cc3ccc(OCCN5CCOCC5)cc3)CC4)n(C)c2C)c2ccccc2)cn1 [Example 196, N-[1-(2-methoxyethyl)pyrazol-4-yl]-1,2-dimethyl-5-[7-[(3R)-3-methyl-3,4-dihydro-1H-isoquinoline-2-carbonyl]-2-[2-[4-(2-morpholinoethoxy)phenyl]acetyl]-3,4-dihydro-1H-isoquinolin-6-yl]-N-phenyl-pyrrole-3-carboxamide]
- IC50 [3]: 0.0089 µM

- Ki [1]: 0.02 nM
- Ki [2]: 0.06 nM
- Ki [4]: 8.5 nM
- TR_FRET EKI BCLxL/WT selectivty ratio [4]: 404.3
- TR_FRET EKI G101V/WT selectivty ratio [5]: 23.3
- Ki [6]: 0.5 nM
SMILES: Cc1ccc(N(C(=O)c2cc(-c3cc4c(cc3C(=O)N3Cc5ccccc5C[C@H]3C)CN(C(=O)Cc3ccc(OCCN5CCOCC5)cc3F)CC4)n(C)c2C)c2ccccc2)cc1C#N [Example 203, N-(3-cyano-4-methyl-phenyl)-5-[2-[2-[2-fluoro-4-(2-morpholinoethoxy)phenyl]acetyl]-7-[(3R)-3-methyl-3,4-dihydro-1H-isoquinoline-2-carbonyl]-3,4-dihydro-1H-isoquinolin-6-yl]-1,2-dimethyl-N-phenyl-pyrrole-3-carboxamide]
- IC50 [3]: 0.0091 µM

- Ki [1]: 0.06 nM
- Ki [2]: 0.17 nM
- Ki [4]: 9.6 nM
- TR_FRET EKI BCLxL/WT selectivty ratio [4]: 152.4
- TR_FRET EKI G101V/WT selectivty ratio [5]: 30.8
- Ki [6]: 1.9 nM
SMILES: Cc1ccc(N(C(=O)c2cc(-c3cc4c(cc3C(=O)N3Cc5ccccc5C[C@H]3C)CN(C(=O)Cc3ccc(OCCN5CCOCC5)cc3)CC4)n(C)c2C)c2ccccc2)cc1C#N [Example 204, N-(3-cyano-4-methyl-phenyl)-1,2-dimethyl-5-[7-[(3R)-3-methyl-3,4-dihydro-1H-isoquinoline-2-carbonyl]-2-[2-[4-(2-morpholinoethoxy)phenyl]acetyl]-3,4-dihydro-1H-isoquinolin-6-yl]-N-phenyl-pyrrole-3-carboxamide]
- IC50 [3]: 0.0111 µM

Further lines, the compound ahead of its results:

SMILES: COc1ccc(N(C(=O)c2cc(-c3cc4c(cc3C(=O)N3Cc5ccccc5C[C@H]3C)CN(C(=O)Cc3ccc(OCCN5CCOCC5)cc3F)CC4)n(C)c2C)c2ccccc2)cn1 [Example 192, 5-[2-[2-[2-fluoro-4-(2-morpholinoethoxy)phenyl]acetyl]-7-[(3R)-3-methyl-3,4-dihydro-1H-isoquinoline-2-carbonyl]-3,4-dihydro-1H-isoquinolin-6-yl]-N-(6-methoxy-3-pyridyl)-1,2-dimethyl-N-phenyl-pyrrole-3-carboxamide]
- Ki [1]: 0.04 nM
- Ki [2]: 0.11 nM
- IC50 [3]: 0.0083 µM
- Ki [4]: 7.7 nM
- TR_FRET EKI BCLxL/WT selectivty ratio [4]: 175.0
- TR_FRET EKI G101V/WT selectivty ratio [5]: 58.9
- Ki [6]: 2.6 nM

SMILES: Cc1c(C(=O)N(c2ccccc2)c2cnn(C(F)F)c2)cc(-c2cc3c(cc2C(=O)N2Cc4ccccc4C[C@H]2C)CN(C(=O)Cc2ccc(OCCN4CCOCC4)cc2F)CC3)n1C [Example 193, N-[1-(difluoromethyl)pyrazol-4-yl]-5-[2-[2-[2-fluoro-4-(2-morpholinoethoxy)phenyl]acetyl]-7-[(3R)-3-methyl-3,4-dihydro-1H-isoquinoline-2-carbonyl]-3,4-dihydro-1H-isoquinolin-6-yl]-1,2-dimethyl-N-phenyl-pyrrole-3-carboxamide]
- Ki [1]: 0.04 nM
- Ki [2]: 0.1 nM
- IC50 [3]: 0.0062 µM
- Ki [4]: 11 nM
- TR_FRET EKI BCLxL/WT selectivty ratio [4]: 256.9
- TR_FRET EKI G101V/WT selectivty ratio [5]: 72.0
- Ki [6]: 3.1 nM

SMILES: Cc1c(C(=O)N(c2ccccc2)c2cnc3c(cnn3C)c2)cc(-c2cc3c(cc2C(=O)N2Cc4ccccc4C[C@H]2C)CN(C(=O)Cc2ccc(OCCN4CCOCC4)cc2F)CC3)n1C [Example 194, 5-[2-[2-[2-fluoro-4-(2-morpholinoethoxy)phenyl]acetyl]-7-[(3R)-3-methyl-3,4-dihydro-1H-isoquinoline-2-carbonyl]-3,4-dihydro-1H-isoquinolin-6-yl]-1,2-dimethyl-N-(1-methylpyrazolo[3,4-b]pyridin-5-yl)-N-phenyl-pyrrole-3-carboxamide]
- Ki [1]: 0.03 nM
- Ki [2]: 0.08 nM
- IC50 [3]: 0.0026 µM
- Ki [4]: 3.3 nM
- TR_FRET EKI BCLxL/WT selectivty ratio [4]: 115.0
- TR_FRET EKI G101V/WT selectivty ratio [5]: 35.7
- Ki [6]: 1 nM

SMILES: Cc1c(C(=O)N(c2ccccc2)c2cnn(C)c2)cc(-c2cc3c(cc2C(=O)N2Cc4ccccc4C[C@H]2C)CN(C(=O)Cc2ccc(OCCN4CCOCC4)cc2F)CC3)n1C [Example 197, 5-[2-[2-[2-fluoro-4-(2-morpholinoethoxy)phenyl]acetyl]-7-[(3R)-3-methyl-3,4-dihydro-1H-isoquinoline-2-carbonyl]-3,4-dihydro-1H-isoquinolin-6-yl]-1,2-dimethyl-N-(1-methylpyrazol-4-yl)-N-phenyl-pyrrole-3-carboxamide]
- Ki [1]: 0.02 nM
- Ki [2]: 0.05 nM
- IC50 [3]: 0.0023 µM
- Ki [4]: 9.9 nM
- TR_FRET EKI BCLxL/WT selectivty ratio [4]: 523.3
- TR_FRET EKI G101V/WT selectivty ratio [5]: 63.9
- Ki [6]: 1.2 nM

SMILES: Cc1c(C(=O)N(c2ccc(F)cc2)c2cnn(C)c2)cc(-c2cc3c(cc2C(=O)N2Cc4ccccc4C[C@H]2C)CN(C(=O)Cc2ccc(OCCN4CCOCC4)cc2)CC3)n1C [Example 200, N-(4-fluorophenyl)-1,2-dimethyl-5-[7-[(3R)-3-methyl-3,4-dihydro-1H-isoquinoline-2-carbonyl]-2-[2-[4-(2-morpholinoethoxy)phenyl]acetyl]-3,4-dihydro-1H-isoquinolin-6-yl]-N-(1-methylpyrazol-4-yl)pyrrole-3-carboxamide]
- Ki [1]: 0.06 nM
- Ki [2]: 0.15 nM
- IC50 [3]: 0.0155 µM
- Ki [4]: 26 nM
- TR_FRET EKI BCLxL/WT selectivty ratio [4]: 419.8
- TR_FRET EKI G101V/WT selectivty ratio [5]: 88.0
- Ki [6]: 5.5 nM

SMILES: COc1ncc(N(C(=O)c2cc(-c3cc4c(cc3C(=O)N3Cc5ccccc5C[C@H]3C)CN(C(=O)Cc3ccc(OCCN5CCOCC5)cc3F)CC4)n(C)c2C)c2ccccc2)cc1C#N [Example 202, N-(5-cyano-6-methoxy-3-pyridyl)-5-[2-[2-[2-fluoro-4-(2-morpholinoethoxy)phenyl]acetyl]-7-[(3R)-3-methyl-3,4-dihydro-1H-isoquinoline-2-carbonyl]-3,4-dihydro-1H-isoquinolin-6-yl]-1,2-dimethyl-N-phenyl-pyrrole-3-carboxamide]
- Ki [1]: 0.05 nM
- Ki [2]: 0.11 nM
- IC50 [3]: 0.0256 µM
- Ki [4]: 10.9 nM
- TR_FRET EKI BCLxL/WT selectivty ratio [4]: 214.7
- TR_FRET EKI G101V/WT selectivty ratio [5]: 22.9
- Ki [6]: 1.2 nM
